Patent US9855268B2, “Triazolo[4,5-d]pyrimidine derivatives” (Merck Patent GmbH, priority 2013, dated 2018)
Where a name gives a salt, the structure may show the parent alone.

Biological target: GCN2 (Homo sapiens, UniProt Q9P2K8)
Assay: GCN2 enzyme assay (TR-FRET Lanthascreen, GFP-eIF2alpha phosphorylation)
Type: biochemical
Details: 10 μM ATP, 80 nM GFP-eIF2a, 30 nM GCN2
Source text: GCN2: Assay Principle & Conditions
This assay can quantificate the activity of the serin kinase GCN2 (general control non-derepressible-2).
This kinase is involved in the stress metabolism of cells. It is activated upon starvation (amino acid depletion). Its natural substrate is eIF2a (eukaryotic initiation factor 2 alpha subunit), a translation factor, which gets activated (phosphorylated) by GCN2 in case of an amino acid bottleneck in the cells. This in turn leads to a halt of the protein synthesis. Inhibition of GCN2 results in stopping this mechanism: The cell can not stop protein production upon “starvation” stress.
The assay is run in two steps: the enzymatic reaction and the detection step. In the first step GCN2 is incubated with 10 μM ATP and 80 nM of the GFP-labelled substrate eIF2alpha at room temperature.
The enzymatic reaction is stopped by addition of EDTA. The amount of phosphorylated eIF2alpha is determined by TR-FRET (Lanthascreen): A complex is formed consisting of antibody and GFP labelled phospho-eIF2a, which allows a FRET upon exitation at 340 nm.
Final Concentrations in the Enzymatic Reaction

Sequence of GCN2 (Q9P2K8 whole entry, species assumed): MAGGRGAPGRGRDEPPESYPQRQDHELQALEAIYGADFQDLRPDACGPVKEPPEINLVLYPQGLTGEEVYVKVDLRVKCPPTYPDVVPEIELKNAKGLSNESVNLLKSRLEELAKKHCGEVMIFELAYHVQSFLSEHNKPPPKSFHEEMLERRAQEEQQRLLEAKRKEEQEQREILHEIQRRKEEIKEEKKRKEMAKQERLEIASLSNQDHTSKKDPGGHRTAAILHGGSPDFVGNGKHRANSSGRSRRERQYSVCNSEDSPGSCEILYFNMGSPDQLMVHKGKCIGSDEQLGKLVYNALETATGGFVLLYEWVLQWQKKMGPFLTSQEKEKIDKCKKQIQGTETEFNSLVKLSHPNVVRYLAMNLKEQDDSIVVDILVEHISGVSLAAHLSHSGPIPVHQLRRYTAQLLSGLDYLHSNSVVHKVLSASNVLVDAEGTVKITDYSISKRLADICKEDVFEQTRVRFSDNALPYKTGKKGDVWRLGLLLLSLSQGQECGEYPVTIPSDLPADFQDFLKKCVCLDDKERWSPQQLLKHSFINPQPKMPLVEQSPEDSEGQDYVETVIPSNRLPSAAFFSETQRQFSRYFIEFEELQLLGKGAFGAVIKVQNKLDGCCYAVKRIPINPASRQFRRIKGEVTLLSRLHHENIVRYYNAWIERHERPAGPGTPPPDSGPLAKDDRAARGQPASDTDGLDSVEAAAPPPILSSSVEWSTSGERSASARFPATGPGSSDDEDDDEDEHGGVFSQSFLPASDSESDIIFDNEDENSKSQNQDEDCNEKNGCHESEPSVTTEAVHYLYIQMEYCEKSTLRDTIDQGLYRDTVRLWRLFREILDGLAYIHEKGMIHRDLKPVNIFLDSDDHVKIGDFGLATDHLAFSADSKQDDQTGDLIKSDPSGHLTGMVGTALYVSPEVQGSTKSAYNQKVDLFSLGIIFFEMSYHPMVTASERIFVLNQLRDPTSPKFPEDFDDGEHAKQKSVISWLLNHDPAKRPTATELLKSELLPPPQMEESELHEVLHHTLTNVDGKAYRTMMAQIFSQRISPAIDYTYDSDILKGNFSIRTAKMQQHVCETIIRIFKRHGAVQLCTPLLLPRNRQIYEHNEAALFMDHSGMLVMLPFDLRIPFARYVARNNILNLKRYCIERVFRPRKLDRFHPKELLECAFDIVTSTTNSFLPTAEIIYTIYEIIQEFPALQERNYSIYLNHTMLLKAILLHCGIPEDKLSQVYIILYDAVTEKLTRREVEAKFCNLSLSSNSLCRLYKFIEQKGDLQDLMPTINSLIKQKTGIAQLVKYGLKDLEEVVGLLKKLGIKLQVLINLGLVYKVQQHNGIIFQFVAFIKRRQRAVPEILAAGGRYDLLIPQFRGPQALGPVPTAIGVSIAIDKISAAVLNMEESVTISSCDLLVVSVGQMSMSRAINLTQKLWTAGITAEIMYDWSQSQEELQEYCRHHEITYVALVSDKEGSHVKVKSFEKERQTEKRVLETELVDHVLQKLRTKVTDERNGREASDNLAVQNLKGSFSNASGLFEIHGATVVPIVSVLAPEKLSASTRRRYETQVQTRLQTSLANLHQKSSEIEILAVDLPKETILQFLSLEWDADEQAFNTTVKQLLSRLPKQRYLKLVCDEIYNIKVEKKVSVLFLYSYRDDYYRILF

IC50	SMILES
< 1000 nM	COc1ccc(-n2nnc3cnc(N[C@@H]4CCN(C(=O)CCN(C)C)C4)nc32)cc1 [A85, 3-dimethylamino-1-{(R)-3-[3-(4-methoxy-phenyl)-3H-[1,2,3]triazolo[4,5-d]-pyrimidin-5-ylamino]-pyrrolidin-1-yl}-propan-1-one formate]
< 1000 nM	COc1ccc(-n2nnc3cnc(NC4CCN(CCN5CCCC5)CC4)nc32)cc1 [A86, [3-(4-methoxy-phenyl)-3H-[1,2,3]triazolo[4,5-d]pyrimidin-5-yl]-[1-(2-pyrrolidin-1-yl-ethyl)-piperidin-4-yl]-amine]
1000 to 5000 nM	COc1ccc(-n2nnc3cnc(NC4CCNC(=O)C4)nc32)cc1 (stereo not drawn) [A87, 4-[3-(4-methoxy-phenyl)-3H-[1,2,3]triazolo[4,5-d]pyrimidin-5-ylamino]-piperidin-2-one]
1000 to 5000 nM	COc1ccc(-n2nnc3cnc(N[C@H]4CC[C@@H](NC(=O)OCc5ccccc5)C4)nc32)cc1 [A89, {(1R,3S)-3-[3-(4-methoxy-phenyl)-3H-[1,2,3]triazolo[4,5-d]pyrimidin-5-ylamino]-cyclopentyl}-carbamic acid benzyl ester]
< 1000 nM	COc1ccc(-n2nnc3cnc(N[C@@H]4CCN(C(=O)Cn5cccn5)C4)nc32)cc1 [A90, 1-{(R)-3-[3-(4-methoxy-phenyl)-3H-[1,2,3]triazolo[4,5-d]pyrimidin-5-ylamino]-pyrrolidin-1-yl}-2-pyrazol-1-yl-ethanone]
1000 to 5000 nM	COc1ccc(-n2nnc3cnc(N[C@H]4CCN(C(=O)CN(C)C)C4)nc32)cc1 [A91, 2-dimethylamino-1-{(S)-3-[3-(4-methoxy-phenyl)-3H-[1,2,3]triazolo[4,5-d]-pyrimidin-5-ylamino]-pyrrolidin-1-yl}-ethanone formate]
1000 to 5000 nM	COc1ccc(-n2nnc3cnc(N[C@H]4CCN(C(=O)CCN(C)C)C4)nc32)cc1 [A92, 3-dimethylamino-1-{(S)-3-[3-(4-methoxy-phenyl)-3H-[1,2,3]triazolo[4,5-d]-pyrimidin-5-ylamino]-pyrrolidin-1-yl}-propan-1-one formate]
< 1000 nM	N[C@H]1CC[C@H](Nc2ncc3nnn(-c4ccc(OCCN5CCOCC5)cc4)c3n2)CC1 [A95, trans-N-{3-[4-(2-morpholin-4-yl-ethoxy)-phenyl]-3H-[1,2,3]triazolo[4,5-d]pyrimidin-5-yl}-cyclohexane-1,4-diamine]
1000 to 5000 nM	N[C@H]1CC[C@H](Nc2ncc3nnn(-c4ccc(N5CCOCC5)cn4)c3n2)CC1 [A96, trans-N-[3-(5-morpholin-4-yl-pyridin-2-yl)-3H-[1,2,3]triazolo[4,5-d]pyrimidin-5-yl]-cyclohexane-1,4-diamine]
< 1000 nM	COc1ccc(-n2nnc3cnc(N[C@@H]4CC[C@H](C(=O)N5CCN(C)CC5)C4)nc32)cc1 [A97, {(1S,3R)-3-[3-(4-methoxy-phenyl)-3H-[1,2,3]triazolo[4,5-d]pyrimidin-5-ylamino]-cyclopentyl}-(4-methyl-piperazin-1-yl)-methanone]
< 1000 nM	COc1ccc(-n2nnc3cnc(N[C@@H]4CCOC4)nc32)cc1 [A98, [3-(4-methoxy-phenyl)-3H-[1,2,3]triazolo[4,5-d]pyrimidin-5-yl]-(R)-tetrahydrofuran-3-yl-amine]
< 1000 nM	COC(=O)[C@H]1CC[C@H](Nc2ncc3nnn(-c4ccc(OC)cc4)c3n2)C1 [A110, (1S,3S)-3-[3-(4-methoxy-phenyl)-3H-[1,2,3]triazolo[4,5-d]pyrimidin-5-ylamino]-cyclopentanecarboxylic acid methyl ester]
< 1000 nM	COC(=O)[C@@H]1CC[C@@H](Nc2ncc3nnn(-c4ccc(OC)cc4)c3n2)C1 [A113, (1R,3R)-3-[3-(4-methoxy-phenyl)-3H-[1,2,3]triazolo[4,5-d]pyrimidin-5-ylamino]-cyclopentanecarboxylic acid methyl ester]
< 1000 nM	Cc1ccc2cc(-n3nnc4cnc(N[C@@H]5CCNC5)nc43)ccc2n1 [A126, [3-(2-methyl-quinolin-6-yl)-3H-[1,2,3]triazolo[4,5-d]pyrimidin-5-yl]-(R)-pyrrolidin-3-yl-amine]
< 1000 nM	COc1ccc(-n2nnc3cnc(N[C@@H]4CC[C@@H](C(=O)O)C4)nc32)cc1 [A139, (1R,3R)-3-[3-(4-methoxy-phenyl)-3H-[1,2,3]triazolo[4,5-d]pyrimidin-5-ylamino]-cyclopentanecarboxylic acid]
< 1000 nM	CCOc1ccc(-n2nnc3cnc(N[C@@H]4CC[C@H](C(N)=O)C4)nc32)cc1 [A149, (1S,3R)-3-[3-(4-ethoxy-phenyl)-3H-[1,2,3]triazolo[4,5-d]pyrimidin-5-ylamino]-cyclopentanecarboxylic acid amide]
< 1000 nM	NC(=O)[C@@H]1CC[C@@H](Nc2ncc3nnn(-c4ccc(N5CCOCC5=O)c(F)c4)c3n2)C1 [A154, (1R,3R)-3-{3-[3-fluoro-4-(3-oxo-morpholin-4-yl)-phenyl]-3H-[1,2,3]triazolo[4,5-d]pyrimidin-5-ylamino}-cyclopentanecarboxylic acid amide]

IC50	SMILES
< 1000 nM	COc1c(F)cc(-n2nnc3cnc(N[C@@H]4CC[C@@H](C(N)=O)C4)nc32)cc1F [A163, (1R,3R)-3-[3-(3,5-difluoro-4-methoxy-phenyl)-3H-[1,2,3]triazolo[4,5-d]pyrimidin-5-ylamino]-cyclopentanecarboxylic acid amide]
< 1000 nM	COCCOc1ccc(-n2nnc3cnc(N[C@@H]4CC[C@H](C(N)=O)C4)nc32)cc1 [A166, (1S,3R)-3-{3-[4-(2-methoxy-ethoxy)-phenyl]-3H-[1,2,3]triazolo[4,5-d]pyrimidin-5-ylamino}-cyclopentanecarboxylic acid amide]
< 1000 nM	NC(=O)[C@H]1CC[C@@H](Nc2ncc3nnn(-c4ccc(I)cc4)c3n2)C1 [A171, (1S,3R)-3-[3-(4-iodo-phenyl)-3H-[1,2,3]triazolo[4,5-d]pyrimidin-5-ylamino]-cyclopentanecarboxylic acid amide]
< 1000 nM	O=C(O)[C@H]1CC[C@@H](Nc2ncc3nnn(-c4ccc5ncccc5c4)c3n2)C1 [A188, (1S,3R)-3-(3-quinolin-6-yl-3H-[1,2,3]triazolo[4,5-d]pyrimidin-5-ylamino)-cyclopentanecarboxylic acid]
< 1000 nM	COc1ccc(-n2nnc3cnc(N[C@@H]4CCC[C@@H](O)C4)nc32)cc1 [A201, (1R,3R)-3-[3-(4-methoxy-phenyl)-3H-[1,2,3]triazolo[4,5-d]pyrimidin-5-ylamino]-cyclohexanol]
< 1000 nM	O[C@@H]1CC[C@@H](Nc2ncc3nnn(-c4ccc(-c5cnn(Cc6cccnc6)c5)cc4)c3n2)C1 [A231, (1R,3R)-3-{3-[4-(1-pyridin-3-ylmethyl-1H-pyrazol-4-yl)-phenyl]-3H-[1,2,3]triazolo[4,5-d]pyrimidin-5-ylamino}-cyclopentanol]
< 1000 nM	NC(=O)[C@@H]1CC[C@@H](Nc2ncc3nnn(-c4ccc(-c5cnn(CCO)c5)cn4)c3n2)C1 [A261, (1R,3R)-3-(3-{5-[1-(2-hydroxy-ethyl)-1H-pyrazol-4-yl]-pyridin-2-yl}-3H-[1,2,3]triazolo[4,5-d]pyrimidin-5-ylamino)-cyclopentanecarboxylic acid amide]
< 1000 nM	COc1ccc(-n2nnc3cnc(N[C@@H]4CC[C@H](c5ncc(C)o5)C4)nc32)cc1 [A267, [3-(4-methoxy-phenyl)-3H-[1,2,3]triazolo[4,5-d]pyrimidin-5-yl]-[(1R,3S)-3-(5-methyl-oxazol-2-yl)-cyclopentyl]-amine]
< 1000 nM	COc1ccc(-n2nnc3cnc(N[C@@H]4CCN(S(C)(=O)=O)C4)nc32)cc1 [A269a, ((R)-1-Methanesulfonyl-pyrrolidin-3-yl)-[3-(4-methoxy-phenyl)-3H-[1,2,3]triazolo[4,5-d]pyrimidin-5-yl]-amine]
< 1000 nM	Cc1ccc2cc(-n3nnc4cnc(N[C@@H]5CCN(C(N)=O)C5)nc43)ccc2n1 [A284, (R)-3-[3-(2-methyl-quinolin-6-yl)-3H-[1,2,3]triazolo[4,5-d]pyrimidin-5-ylamino]-pyrrolidine-1-carboxylic acid amide]
< 1000 nM	COc1ccc(-n2nnc3cnc(N[C@@H]4CC[C@@H](N5CCCC5=O)C4)nc32)cc1 [A291, 1-{(1R,3R)-3-[3-(4-methoxy-phenyl)-3H-[1,2,3]triazolo[4,5-d]pyrimidin-5-ylamino]-cyclopentyl}-pyrrolidin-2-one]
1000 to 5000 nM	Cn1cc(CNc2ncc3nnn(-c4ccc(Cl)c(F)c4)c3n2)cn1 [B4, [3-(4-chloro-3-fluoro-phenyl)-3H-[1,2,3]triazolo[4,5-d]pyrimidin-5-yl]-(1-methyl-1H-pyrazol-4-ylmethyl)-amine]
1000 to 5000 nM	COCCOc1ccc(-n2nnc3cnc(NCc4cnn(C)c4)nc32)cc1 [B6, {3-[4-(2-methoxy-ethoxy)-phenyl]-3H-[1,2,3]triazolo[4,5-d]pyrimidin-5-yl}-(1-methyl-1H-pyrazol-4-ylmethyl)-amine]
< 1000 nM	CCOc1ccc(-n2nnc3cnc(NCCc4cnn(C)c4)nc32)cc1 [B7, [3-(4-ethoxy-phenyl)-3H-[1,2,3]triazolo[4,5-d]pyrimidin-5-yl]-[2-(1-methyl-1H-pyrazol-4-yl)-ethyl]-amine]
< 1000 nM	CCOc1ccc(-n2nnc3cnc(NCCc4cn[nH]c4)nc32)cc1 [B9, [3-(4-ethoxy-phenyl)-3H-[1,2,3]triazolo[4,5-d]pyrimidin-5-yl]-[2-(1H-pyrazol-4-yl)-ethyl]-amine]
1000 to 5000 nM	COc1ccc(-n2nnc3cnc(NCCc4ccccc4)nc32)cc1 [B10, [3-(4-methoxy-phenyl)-3H-[1,2,3]triazolo[4,5-d]pyrimidin-5-yl]-phenethyl-amine]
